{"source": "patent US5519116A", "about": "“Peptides representing permutations of the mastoparan sequence” (Enichem S.p.A., priority 1991, dated 1996)", "key": {"rGOα": {"target": "rGOα", "experiment": "GTPγS binding to rGOα to saturation", "parameters": "species or system rat", "settings": "at 20°"}, "[1]": {"target": "T1, rGOα (recombined Goα protein) (Rattus norvegicus, UniProt P59215)", "T1 construct": "made in house; host or cells: E. coli (plasmid pT7-7)", "T1 sequence (P59215 13-354)": "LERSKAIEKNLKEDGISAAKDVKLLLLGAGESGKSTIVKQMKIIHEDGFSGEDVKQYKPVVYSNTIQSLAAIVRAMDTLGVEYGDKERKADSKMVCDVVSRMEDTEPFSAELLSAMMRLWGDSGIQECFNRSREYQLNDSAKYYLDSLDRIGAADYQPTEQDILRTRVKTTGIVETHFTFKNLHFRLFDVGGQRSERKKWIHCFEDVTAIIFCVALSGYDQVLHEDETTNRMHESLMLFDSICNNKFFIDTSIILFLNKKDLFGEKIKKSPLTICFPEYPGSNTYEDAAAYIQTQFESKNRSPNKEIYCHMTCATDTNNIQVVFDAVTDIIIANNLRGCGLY", "experiment": "GTPase activity assay: GTP hydrolyzed by rGOα reconstituted into phospholipid blisters", "assay_type": "biochemical", "settings": "for inhibition at 1000 µM: 1 mM concentration of peptide, read-out: inhibition of hydrolysis of GTP by rGOα; for pIC50: inhibition of basal GTPase activity of rGOα, read-out: IC 50 (concentration necessary to achieve 50% inhibition); for pEC50: stimulation of rGOα GTPase activity, read-out: concentration giving 50 % of maximum stimulation", "method": "The activity of the peptides was determined by evaluating the quantity of GTP hydrolyzed in the presence of a recombined Goα protein, using the procedures published by Brandt et al., (1983), Biochemistry, 22, 4357-4362 and by Higashijima et al., (1987), J. Biol. Chem., 262, 757-761.\nThe rGOα was produced by the authors of the present invention by expression in E.coli of the cDNA of the α subunit of the Go protein present in the rat's brain, inserted in register in the bacterial plasmid pt7-7 (Tabor et al., 1985, Proc. Natl. Acad. Sci. USA, 82, 1074-1078).\nCompared with natural GOα, rGOα has an N-terminal deletion of 11 amino acids, replaced by another 5 different amino acids because of the cloning strategy adopted. The molecular weight of rGOα is 38.6 Kd.\nWhen the rGOα is reconstituted into phospholipid blisters (by incubation with a phospholipid mixture at 4° C. for 16 hours), its basal GTPase activity reduces to 0.02 min^-1, This experimental condition which approaches that of the natural protein, in the inactivity state, inserted into the cell membrane was chosen to evaluate the effect of the peptides on the hydrolysis of GTP by rGOα.\n5 volumes of a solution of rGOα in 50 mM Hepes, pH 8, 1 mM EDTA, 1 mM DTT and 0.02% of Lubrol (HEDL) were mixed with 1 volume of the same buffer containing 0.84% of sodium cholate, 0.05% of dimyristoyl-L-α-phosphatidylcholine, 0.05% of phosphatidylethanolamine from bovine brain and 0.067% of phosphatidyl-serine from bovine brain (as described by Mousli et al., 1990, Immunol. Lett., 25, 355-358) and preincubated at 4° C. overnight.\nAn aliquot of 32 μl of this solution was incubated at 20° C. for 5 min in a final volume of 50 μl of HEDL containing 1.1 mM MgCl2 and 0.4 μM (γ^-32 p) GTP (10000-30000 cpm/pmol) and the respective peptide at the final concentrations indicated.\nThe reactions were terminated by adding 750 μl of a 5% suspension of vegetable charcoal in 20 mM phosphoric acid. After agitation and centrifuging, 400 μl of supernatant containing the radioactive phosphate were counted by liquid scintillation."}}, "note": "pEC50, pIC50, pKd: −log10 of the molar value. Peptide text beside a SMILES is read from it."}
{"compound": "Nc1nc2c(ncn2[C@@H]2O[C@H](COP(=O)(O)OP(=O)(O)OP(O)(O)=S)[C@@H](O)[C@H]2O)c(=O)[nH]1", "note": "[GTPγ S]", "values": [{"measurement": "pKd", "setting": "rGOα", "result": 8.54}]}
{"compound": "CC[C@H](C)[C@H](N)C(=O)N[C@@H](CC(N)=O)C(=O)N[C@@H](CC(C)C)C(=O)N[C@@H](CCCCN)C(=O)N[C@@H](C)C(=O)N[C@@H](CC(C)C)C(=O)N[C@@H](C)C(=O)N[C@@H](C)C(=O)N[C@@H](CC(C)C)C(=O)N[C@@H](C)C(=O)N[C@@H](CCCCN)C(=O)N[C@@H](CCCCN)C(=O)N[C@H](C(=O)N[C@@H](CC(C)C)C(N)=O)[C@@H](C)CC", "note": "[Mastoparan, mastoparan]", "values": [{"measurement": "increase of GTP hydrolysis", "setting": "[1]; 1 mM of peptide (no additional effect beyond this concentration), 20° C., 5 min", "result": 5, "unit": "times"}, {"measurement": "effect on the GTPase activity of rGOα (capacity to activate the protein rGoα)", "setting": "[1]; summary in words", "result": "stimulate the GTPase activity of rGOα in a manner dependent on the concentration"}]}
{"compound": "CC[C@H](C)[C@H](NC(=O)[C@H](CC(C)C)NC(=O)[C@H](C)NC(=O)[C@H](CCCCN)NC(=O)[C@H](CC(C)C)NC(=O)[C@H](CC(N)=O)NC(=O)[C@H](CC(C)C)NC(=O)[C@H](C)NC(=O)[C@@H](NC(=O)[C@H](CCCCN)NC(=O)[C@@H](N)CC(C)C)[C@@H](C)CC)C(=O)N[C@@H](C)C(=O)N[C@@H](C)C(=O)N[C@@H](CCCCN)C(=O)O", "note": "[compound 2] (H-LKIALNLKALIAAK-OH)", "values": [{"measurement": "inhibition at 1000 µM", "setting": "[1]", "result": "> 90", "unit": "%"}, {"measurement": "pIC50", "setting": "[1]", "result": 3.89}]}
{"compound": "CC[C@H](C)[C@H](NC(=O)[C@H](C)NC(=O)[C@H](CC(C)C)NC(=O)[C@H](C)N)C(=O)N[C@@H](CCCCN)C(=O)N[C@@H](CC(C)C)C(=O)N[C@H](C(=O)N[C@@H](CC(C)C)C(=O)N[C@@H](CC(N)=O)C(=O)N[C@@H](CC(C)C)C(=O)N[C@@H](CCCCN)C(=O)N[C@@H](C)C(=O)N[C@@H](CCCCN)C(=O)N[C@@H](C)C(=O)O)[C@@H](C)CC", "note": "[peptide 1] (H-ALAIKLILNLKAKA-OH)", "values": [{"measurement": "inhibition at 1000 µM", "setting": "[1]", "result": 75, "unit": "%"}, {"measurement": "pIC50", "setting": "[1]", "result": 3.67}]}
{"compound": "CC[C@H](C)[C@H](N)C(=O)N[C@@H](CC(N)=O)C(=O)N[C@@H](CC(C)C)C(=O)N[C@@H](C)C(=O)N[C@@H](C)C(=O)N[C@@H](CC(C)C)C(=O)N[C@@H](CCCCN)C(=O)N[C@@H](CCCCN)C(=O)N[C@@H](CC(C)C)C(=O)N[C@@H](C)C(=O)N[C@@H](C)C(=O)N[C@@H](CCCCN)C(=O)N[C@H](C(=O)N[C@@H](CC(C)C)C(=O)O)[C@@H](C)CC", "note": "[peptide 4] (H-INLAALKKLAAKIL-OH)", "values": [{"measurement": "pEC50", "setting": "[1]; 20° C., 5 min", "result": 3.30}]}
{"compound": "CC[C@H](C)[C@H](NC(=O)[C@H](C)NC(=O)[C@H](CCCCN)NC(=O)[C@H](CC(C)C)NC(=O)[C@H](CCCCN)NC(=O)[C@H](C)NC(=O)[C@H](CC(N)=O)NC(=O)[C@@H](N)CC(C)C)C(=O)N[C@@H](C)C(=O)N[C@@H](CC(C)C)C(=O)N[C@@H](C)C(=O)N[C@@H](CC(C)C)C(=O)N[C@H](C(=O)N[C@@H](CCCCN)C(=O)O)[C@@H](C)CC", "note": "[peptide 7] (H-LNAKLKAIALALIK-OH)", "values": [{"measurement": "inhibition at 1000 µM", "setting": "[1]", "result": 63, "unit": "%"}, {"measurement": "pIC50", "setting": "[1]", "result": 3.22}]}
{"compound": "CC[C@H](C)[C@H](NC(=O)[C@H](CC(C)C)NC(=O)[C@H](C)NC(=O)[C@H](CCCCN)NC(=O)[C@H](C)NC(=O)[C@H](CC(C)C)NC(=O)[C@H](C)NC(=O)[C@H](CC(C)C)NC(=O)[C@@H](NC(=O)[C@@H](N)CC(N)=O)[C@@H](C)CC)C(=O)N[C@@H](CCCCN)C(=O)N[C@@H](C)C(=O)N[C@@H](CC(C)C)C(=O)N[C@@H](CCCCN)C(=O)O", "note": "[peptide 8] (H-NILALAKALIKALK-OH)", "values": [{"measurement": "pEC50", "setting": "[1]; 20° C., 5 min", "result": 3.60}]}
